Measured values as given in US20050272662A1, “Self-assembled peptide-amphiphiles & self-assembled peptide nanofiber networks presenting multiple signals” (priority 2002, published 2005).
Residues, ends and D or L forms follow the SMILES beside them. *: point of attachment. Palmitoyl = CCCCCCCCCCCCCCCC(=O)*

Conditions: concentration about 10 mg/mL
Protocol: The two molecules can be dissolved in pH-adjusted water at a concentration of about 2-30 mg/ml, and preferably about 10 mg/mL.
The molecules were then dissolved in water at a concentration of 10 mg/mL, adjusting the pH to improve solubility. […] In the case of molecule 1, the pH was raised to about pH 8 with 2M and 100 mM KOH, then back-titrated to pH 7.

CCCCCCCCCCCCCCCC(=O)N[C@@H](C)C(=O)N[C@@H](C)C(=O)N[C@@H](C)C(=O)N[C@@H](C)C(=O)NCC(=O)NCC(=O)NCC(=O)N[C@@H](CCCCN)C(=O)N[C@@H](Cc1ccc(O)cc1)C(=O)N[C@H](C(=O)NCC(=O)N[C@@H](CO)C(=O)N[C@@H](CCCNC(=N)N)C(N)=O)[C@@H](C)CC [Molecule 2] (Palmitoyl-AAAAGGGKYIGSR-NH2)
appearance of solution in pH-adjusted water: translucent
